From US20110178053A1, “AZACARBOLINE DERIVATIVES, PREPARATION METHOD THEREOF AND THERAPEUTIC USE OF SAME” (SANOFI-AVENTIS, priority 2008, published 2011) come the findings set out here.

The target of one experiment is T1, Pim-1 (Homo sapiens, UniProt P11309).
T1 construct: His6-labelled recombinant full-length human Pim-1, Pim-2 or Pim-3 protein; His6; made in house
The experiment can be described thus: TR-FRET assay, Pim-1 kinase (phosphorylation of Bad Ser112). To be noted: TR-FRET; ATP 40 μM; read-out: IC50 Pim1. It is filed as biochemical. Summed up: (§1)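 For each of Pim-1, Pim-2 and Pim-3 (His6-tagged full-length human), compounds were titrated over 10 concentrations in duplicate, typically from 30 μM, with ATP at 40 μM, equal to apparent KM. Bad Ser112 phosphorylation was read as the 665/615 nm TR-FRET ratio and IC50 fitted by 4-parameter logistic model.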
In general terms: Time-resolved FRET reads energy transfer from a long-lived donor to a nearby acceptor.

The target in a further experiment is T2, Pim-2 (Homo sapiens, UniProt Q9P1W9).
T2 construct: His6-labelled recombinant full-length human Pim-1, Pim-2 or Pim-3 protein; His6; made in house
Kind of experiment: TR-FRET assay, Pim-2 kinase (phosphorylation of Bad Ser112). In kind it is biochemical. To be noted: TR-FRET; ATP 40 μM; read-out: IC50 Pim2. The method, boiled down:
as §1

A further experiment addresses T3, Pim-3 (Homo sapiens, UniProt Q86V86).
T3 construct: His6-labelled recombinant full-length human Pim-1, Pim-2 or Pim-3 protein; His6; made in house
The experiment can be described thus: TR-FRET assay, Pim-3 kinase (phosphorylation of Bad Ser112). It is filed as biochemical. To be noted: TR-FRET; ATP 40 μM; read-out: IC50 Pim3. Summed up: as §1

A further experiment deals with PLK1 (Homo sapiens, UniProt P53350). The experiment can be described thus: PLK1 biochemical inhibition.
The subject of another experiment is PI3K. Kind of experiment: PI3K biochemical inhibition.
For a further experiment, the system named is EOL-1. The experiment can be described thus: Cell viability assay (CellTiter-Blue), EOL-1. In kind it is cell-based. Particulars: Homo sapiens, EOL1, read-out: EC50 EOL-1 μM (lymphoma); EOL-1 cells; cell proliferation/viability. The source says:
(§2) The representative compounds of the invention are also screened as regards their effects on cell proliferation and viability using a variety of human tumour cell lines, which are representative of various pathological indications. These cell lines include: • Models of haematological cancers: • TF-1 (acute myelogenic leukaemia; AML M6 at the time of diagnosis); • KG-1 (AML; erythroleukaemia evolving into AML); • KG-1a (AML; sub-clone derived from immature KG-1); • EOL-1 (AML; eosinophilic leukaemia); • PL-21 (AML; M3); • ML-2 (AML; T-NHL evolving into T-ALL evolving into AML M4); • HL-60 (AML, M3); • Kasumi-1 (AML); • GDM-1 (AML); • K-562 (CML—chronic myelogenic leukaemia; blastic crisis); • JURL-MK1 (CML; blastic crisis); • DND-41 (T-ALL—-cell acute lymphoblastic leukaemia); • Jurkat (T-ALL); NALM-6 (B-ALL—B-cell ALL); • CEM (ALL; lymphosarcoma evolving into ALL); • Jeko-1 (B-NHL—B-cell non-Hodgkin lymphoma; mantle-cell lymphoma derived from a variant with large cells as a leukaemic transformation); • WSU-DLCL2 (B-NHL; large B-cell diffuse lymphoma); • RL (B-NHL; undifferentiated diffuse); • OCI-Ly10 (B-NHL); • DoHH-2 (B-NHL); • RPMI-8226 (MM—multiple myeloma); • JVM-2 (B-CLL—B-cell chronic lymphocytic leukaemia); and • JVM-3 (B-CLL) • MV4-11 (AML) • MOLM13 (AML). • Solid tumour models: • HCT-116 (bowel cancer); • HT-29 (bowel cancer); • HC-15 (bowel cancer); • H460 (lung cancer; non-small-cell lung cancer); • A375 (melanoma); • B16F10 (melanoma); • MDA-A1 (breast cancer); • MDA-MB231 (breast cancer); • MDA-MB231 adr (breast cancer); • PANC-1 (pancreatic cancer); and • PC-3 (prostate cancer).
(§3) In order to measure the viability, the tumour cells are incubated in a 96-well or 384-well format for 48, 72 or 96 hours, preferably 72 hours, with a compound of the invention at dilutions of a factor 3 with, in general, nine doses in total, the highest dose being equal to 10 μM or 30 μM. The cell viability is evaluated by adding CellTiter-Blue® (Promega, Madison, Wis., United States) for 4 hours and end-point readings are taken using a SpectraMax Genmini EM (Molecular Devices, Sunnyvale, Calif., United States). The CellTiter-Blue® cell viability assay measures the ability of the cells in culture to reduce resazurin to resorufin, the fluorescence signal intensity being directly proportional to the number of live cells.

The subject of a further experiment is MV4-11. The experiment can be described thus: Cell viability assay (CellTiter-Blue), MV4-11. It is filed as cell-based. Particulars: Homo sapiens; MV4-11 cells; cell proliferation/viability; read-out: IC50 MV4-11 μM (myeloma).
Source text: as §2, §3
A general note: Resazurin is reduced to fluorescent resorufin, in cell work by metabolically active cells.

The next experiment concerns MOLM-13. The experiment can be described thus: Cell viability assay (CellTiter-Blue), MOLM-13. It is filed as cell-based. To be noted: Homo sapiens; MOLM-13 cells; cell proliferation/viability; read-out: IC50 MOLM-13 μM (myeloma).
Source text: as §2, §3

T1 sequence (P11309 whole entry): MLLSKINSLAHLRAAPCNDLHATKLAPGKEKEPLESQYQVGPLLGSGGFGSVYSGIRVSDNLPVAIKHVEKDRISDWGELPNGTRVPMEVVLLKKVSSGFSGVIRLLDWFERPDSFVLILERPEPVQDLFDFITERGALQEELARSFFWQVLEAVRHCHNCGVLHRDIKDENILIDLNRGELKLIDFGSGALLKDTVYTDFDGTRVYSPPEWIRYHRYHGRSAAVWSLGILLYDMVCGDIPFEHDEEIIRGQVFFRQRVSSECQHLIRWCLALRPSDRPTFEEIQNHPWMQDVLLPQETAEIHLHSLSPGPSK
T2 sequence (Q9P1W9 whole entry): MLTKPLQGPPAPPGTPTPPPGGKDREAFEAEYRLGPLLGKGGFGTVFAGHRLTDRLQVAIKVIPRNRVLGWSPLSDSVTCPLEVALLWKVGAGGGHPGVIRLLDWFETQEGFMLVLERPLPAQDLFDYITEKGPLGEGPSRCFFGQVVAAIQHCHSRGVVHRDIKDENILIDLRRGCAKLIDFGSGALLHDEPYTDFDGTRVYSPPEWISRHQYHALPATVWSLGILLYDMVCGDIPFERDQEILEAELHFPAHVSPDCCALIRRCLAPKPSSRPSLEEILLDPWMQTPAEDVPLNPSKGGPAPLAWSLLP
PLK1, sequence (P53350 whole entry, species assumed): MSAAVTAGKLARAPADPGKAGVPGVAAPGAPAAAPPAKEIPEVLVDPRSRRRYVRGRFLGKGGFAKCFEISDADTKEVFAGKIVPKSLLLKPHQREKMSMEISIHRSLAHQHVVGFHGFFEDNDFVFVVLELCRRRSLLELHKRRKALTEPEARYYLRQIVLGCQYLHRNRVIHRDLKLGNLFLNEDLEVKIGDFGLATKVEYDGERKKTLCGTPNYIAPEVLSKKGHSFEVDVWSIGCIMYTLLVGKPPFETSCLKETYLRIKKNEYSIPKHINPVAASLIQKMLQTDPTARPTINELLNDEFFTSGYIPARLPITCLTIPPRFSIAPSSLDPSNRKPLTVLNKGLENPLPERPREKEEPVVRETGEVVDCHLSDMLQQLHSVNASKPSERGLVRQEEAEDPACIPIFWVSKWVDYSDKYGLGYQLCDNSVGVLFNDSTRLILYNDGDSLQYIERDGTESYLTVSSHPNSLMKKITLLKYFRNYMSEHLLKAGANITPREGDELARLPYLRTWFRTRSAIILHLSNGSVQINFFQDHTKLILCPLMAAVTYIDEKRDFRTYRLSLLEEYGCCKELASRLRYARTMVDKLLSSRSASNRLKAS

Broadly, the IC50 is the concentration that inhibits the measured activity by half. For `NS(=O)(=O)c1cccc(-c2c(F)cnc3[nH]c4cnc(-c5cccnc5)cc4c23)c1` [Example 21, 3-[3-Fluoro-6-(pyrid-3-yl)-9H-pyrrolo[2,3-b:5,4-c′]dipyrid-4-yl]-benzenesulfonamide], the IC50 at Pim-1 is 1 to 100 nM; on Pim-2, above 5000 nM; on Pim-3 it was 100 to 1000 nM; at PLK1, 1 to 100 nM; with PI3K it was 1000 to 5000 nM.

Turning to `COc1cc(OC)cc(-c2c(F)cnc3[nH]c4cnc(-c5cccnc5)cc4c23)c1` [Example 23, 4-(3,5-dimethoxy-phenyl)-3-fluoro-6-(pyrid-3-yl)-9H-pyrrolo-[2,3-b:5,4-c′]dipyridine], the IC50 is 1 to 100 nM on Pim-1; above 5000 nM on Pim-2; 100 to 1000 nM on Pim-3; 1000 to 5000 nM against PLK1; above 5000 nM with PI3K.

For the molecule `Oc1cccc(-c2c(F)cnc3[nH]c4cnc(-c5cccnc5)cc4c23)c1` [Example 26], the IC50 on Pim-1 lay in the range of 1 to 100 nM; on Pim-2, 1000 to 5000 nM; at Pim-3 it was 100 to 1000 nM; in the experiment on PI3K it was 100 to 1000 nM.

Turning to `Fc1cnc2[nH]c3cnc(-c4cccnc4)cc3c2c1/C=C/C1CC1` [Example 27, 4-[(E)-2-cyclopropyl-ethenyl]-3-fluoro-6-(pyrid-3-yl)-9H-pyrrolo-[2,3-b:5,4-c′]dipyridine], the IC50 is 1 to 100 nM on Pim-1, above 5000 nM at Pim-2, 100 to 1000 nM at Pim-3 and above 5000 nM in the experiment with PI3K.

With `O=S(=O)(NC1CC1)c1ccc(-c2c(F)cnc3[nH]c4cnc(-c5cccnc5)cc4c23)cc1` [Example 28, N-cyclopropyl-4-(3-fluoro-6-(pyrid-3-yl)-9H-pyrrolo[2,3-b:5,4-c′]-dipyrid-4-yl]benzene-sulfonamide], the IC50 was 1 to 100 nM at Pim-1; above 5000 nM at Pim-2; 100 to 1000 nM at Pim-3; 1 to 100 nM at PLK1; 1000 to 5000 nM in the experiment with PI3K.

For orientation: EC50 means the concentration needed to bring the measured effect to its halfway point. Consider `CCN(CC)CCOc1ccc(-c2c(F)cnc3[nH]c4cnc(-c5cccnc5)cc4c23)cc1` [Example 100, N,N-diethyl-2-{4-[3-fluoro-6-(pyrid-3-yl)-9H-pyrrolo[2,3-b:5,4-c′]dipyrid-4-yl]-phenoxy}ethanamine], for which the IC50 at Pim-1 was 1 to 100 nM; on Pim-2, 100 to 1000 nM; at Pim-3, 1 to 100 nM; at PLK1, 1 to 100 nM; in the experiment with MV4-11 it was 100 to 1000 nM; in the experiment on MOLM-13 it was 100 to 1000 nM. The EC50 in the experiment with EOL-1 was 1 to 100 nM.

For the molecule `CCN(CC)C(=O)c1cccc(-c2cnc3[nH]c4cnc(-c5cccnc5)cc4c3c2)c1` [Example 119, N,N-diethyl-3-[6-(pyrid-3-yl)-9H-pyrrolo[2,3-b:5,4-c′]dipyrid-3-yl]-benzamide], the IC50 at Pim-1 is 1 to 100 nM; on Pim-2 it was 100 to 1000 nM; on Pim-3 it was 1 to 100 nM; at PLK1, 100 to 1000 nM; with MV4-11 it was 100 to 1000 nM; with MOLM-13 it was 100 to 1000 nM. Moreover, the EC50 in the experiment with EOL-1 lay within 1 to 100 nM.

For the molecule `Cc1n[nH]c(C)c1-c1cnc2[nH]c3cnc(-c4cccnc4)cc3c2c1` [Example 120, 3-(3,5-dimethyl-1H-pyrazol-4-yl)-6-(pyrid-3-yl)-9H-pyrrolo[2,3-b:5,4-c′]-dipyridine], the IC50 at Pim-1 is 1 to 100 nM; on Pim-2 it was above 5000 nM; on Pim-3, 1 to 100 nM; on PLK1, 100 to 1000 nM; with MV4-11 it was 1 to 100 nM; in the experiment with MOLM-13, 100 to 1000 nM. Further, in the experiment on EOL-1, the EC50 lay in the range of 1 to 100 nM.

As to `CCN(CC)CCn1cc(-c2cnc3[nH]c4cnc(-c5cccnc5)cc4c3c2)cn1` [Example 123, N,N-diethyl-2-{4-[6-(pyrid-3-yl)-9H-pyrrolo-[2,3-b:5,4-c′]-dipyrid-3-yl]-1H-pyrazol-1-yl}-ethanamine], the IC50 on Pim-1 lay in the range of 1 to 100 nM; on Pim-2, 100 to 1000 nM; at Pim-3 it was 1 to 100 nM; on PLK1 it was 1000 to 5000 nM; in the experiment with MV4-11, 1 to 100 nM; in the experiment with MOLM-13, 1 to 100 nM. Moreover, the EC50 in the experiment with EOL-1 lay in the range of 1 to 100 nM.
